Source: paper PMC7478165, “Derivatisation of parthenolide to address chemoresistant chronic lymphocytic leukaemia” (MedChemComm, 2019)

Key:
[1] = Microsomal stability assay (mouse); conditions: for Mouse microsomal stability: mouse microsomes; for microsomal CLint: mouse, liver microsomes
[2] = tested on: MEC1 CLL cell line; test: alamarBlue assay, in vitro antileukaemic activity against MEC1 CLL cell line; type: cell-based; conditions: for LipE pEC50–clog P: MEC1 cell line pEC50 minus calculated log P
Source text: Defective p53-signalling increases genomic instability and drives tumour progression. A high frequency of p53 inactivation is found in relapsed, treatment-resistant, high risk CLL.[30] […] Owing to resource availability a subset of up to ten of these compounds was prioritised for further investigation. Compounds 2d, 2e, 2j, 2aa, 5a, 5d, 5e, 5f, 5ab and 6b were selected on the basis of reasons including ease of synthetic access, diversity across the chemical space probed and novelty. Those prepared under conditions (i)Scheme 1 (2d, 5a and 6b) were available on a scale and in a purity to directly permit follow-up studies, whereas compounds prepared under conditions (ii)Scheme 1 were prepared on a small scale so were resynthesised. These seven compounds (2e, 2j, 2aa, 5d, 5e, 5f and 5ab) were isolated on >30 mg scale in high purity and progressed to more following studies.
Following the identification of 5f as the most promising drug-like derivative of PTL from the aforementioned parallel/high-throughput screening, the anti-leukaemic activity of 5f was tested once more and compared directly with that of PTL (1) and DMAPT (2a), which serve as comparators and positive controls.
Amine 7 was successfully prepared as follows: 4-Piperidinecarboxylic acid was N-Boc protected to deliver 8 in 92% yield.[43] In order to confidently assign the NMR spectra of compound 8 J-MOD, HSQC and ^1H–^1H COSY were helpful, particularly in establishing that a broad resonance in the proton-decoupled ^13C NMR spectrum, centred on 42.8 ppm, corresponds to the ring-carbons bonded to nitrogen. The carboxylic acid of 8 was converted to the corresponding ethyl-3-keto-propanoate 9 in 24% yield. Conversion of 9 to the N-Boc protected congener 10, was achieved by treatment with acetamidine hydrochloride and potassium carbonate, furnishing 10 in 77% yield. Treatment with trifluoroacetic acid delivered desired compound 7 in 99% yield for the Boc-deprotection step (scale 200 mg, 17% over four linear steps). Thus, evidencing accessibility of amine 7 and with it in hand, it was timely to probe any activity arising from the amine alone. MEC1 sensitivity to 1, 5f and 7 was compared in parallel using the alamarBlue® assay (Fig. 6). […] A pre-peer-reviewed preprint of this article was deposited and may be viewed elsewhere.[44]

[3] = Hepatocyte stability assay (mouse); type: in vitro ADME; conditions: mouse hepatocytes; for half-life: read-out: Hepatocyte stability (mouse) T1/2
[4] = Caco-2 permeability assay; type: in vitro ADME; conditions: for efflux ratio / Papp A→B / Papp B→A: human; for efflux ratio: Caco-2, pH 7.4; for Papp A→B / Papp B→A: Caco-2; for Papp A→B: pH 7.4, A to B; for Papp B→A: pH 7.4, B to A
[5] = Stability in aqueous solution, pH 7.4; type: physicochemical; conditions: for half-life: pH 7.4, read-out: Stability pH 7.4 T1/2; for stability in aqueous solution: result in words
Experimental: Compounds 2d, 2e, 2f, 2g, 2j, 2aa, 5a, 5d, 5e, 5f, 5ab and 6b were subjected to in vitro DMPK testing. […] The other three (2d, 2j and 2aa) were not retained for further investigation due to poor stability (T1/2 at pH 7.4: 13, 107 and 76 min, Table 1, entries 1, 3 and 4 respectively). One obvious aspect contributing to observed stability is the propensity for PTL derivatives of this type to undergo a retro-amination (reverse-Michael-type mechanism), indeed this reverse reaction is often claimed as a pro-drug mode of action.[29a],[33] […] It is a reasonable assertion that activity observed for these unstable compounds could well be ascribed to free PTL generated rapidly in the assay.

[6] = target: hERG K+ channel (Homo sapiens, UniProt Q12809); test: hERG liability assay, IonWorks patch clamp electrophysiology; type: cell-based; conditions: for IC50: eight-point curves, maximum test concentration 100 μM; for inhibition at 100 µM: read-out: hERG inhibition at top test concentration
Experimental: Early toxicological screening is an important step in derisking drug discovery programmes and is increasingly accessible.[39]
Three PTL derivatives (2a, 5a and 5f) were tested for inhibition of the hERG K^+ channel (against cisapride as a positive control) using IonWorks patch clamp electrophysiology. […] Eight-point concentration-response curves were generated using three-fold serial dilutions from a maximum final test concentration of 100 μM, results are summarised in Fig. S6. ^†

[7] = Murine oral (PO) PK study; type: in vivo; conditions: for Mouse PK (PO) UC (0-inf) / Cmax: PO 10 mg kg^–1; for Cmax / half-life: in vivo, mouse; for half-life: PO 10 mg kg^–1, as worded in text
Experimental: The in vivo oral bioavailability of compounds 5a and 5f was compared in a murine PK study at 10 mg kg^–1 (Fig. 4(a)ii and (b)ii and Table 2). In keeping with the intravenous findings, the murine PO half-life of 5f was twice as long as 5a (1.0 versus 0.5 hours, Table 2) and the Cmax attained by 5f was approximately 40% higher than that achieved by 5a (404 versus 283 ng mL^–1). […] Compound 5f was therefore identified as a promising potential new agent with desirable pharmacological properties towards a therapy for drug-resistant CLL.

[8] = Murine intravenous PK study; type: in vivo; conditions: IV 1 mg kg^–1; for clearance / half-life: blood, mouse; for clearance: read-out: Mouse PK (IV) Cl; for half-life: read-out: Mouse PK (IV) T1/2 (converted)
Experimental: In order to determine 5a and 5f are suitable for use as pharmaceutical agents their pharmacokinetic (PK) parameters were next probed. A murine intravenous PK study of compounds 5a and 5f at 1.0 mg kg^–1 was conducted and their concentrations in blood were measured with time (Fig. 4(a)i and (b)i and Table 2).

[9] = in vitro; conditions: mouse, microsomes
[10] = tested on: MEC1 CLL cell line; test: cells; design: alamarBlue (resazurin reduction) cytotoxicity assay in MEC1 CLL cells, n = 5; conditions: Homo sapiens, read-out: alamarBlue EC50 (uM) average n=5
Experimental: Comparison of the activity of 5f with 1 (PTL) and 2a (DMAPT) Biological efforts at University of Birmingham Tissue culture, MEC1 cells were obtained from the American Type Culture Collection (Manassas, VA 20110 USA) and were cultured in RPMI 1640 medium (Sigma-Aldrich, Irvine, UK) with 10% fetal bovine serum (Sigma-Aldrich). The alamarBlue® cytotoxicity assay was conducted by seeding MEC1 cells in triplicate at density of 25000 cells/well in a 96 well plate, final volume of 200 μL. Following treatment with test compound, viability was determined by measuring the reduction of resazurin. Resazurin solution was added to each well at a final concentration of 50 μg/mL and incubated for 3 hours at 37 °C with 5% CO2. Reduction of resazurin was determined by measuring […] at 590 nm using a PheraSTAR FS plate reader (BMG Labtech). Cell viability was calculated as a fraction of the untreated cells after subtracting background fluorescence of resazurin in media only. Data is presented as the mean of five independent experiments and significance was determined by Student’s t-test.

[11] = first of two columns headed A to B
[12] = second of two columns headed A to B
[13] = Homo sapiens, MEC1, MEC1 cell line, alamarBlue assay, library screen, read-out: EC50 ave.
[14] = MEC1 cell line, alamarBlue assay, library screen, read-out: EC50 ave.
[15] = Homo sapiens, MEC1, MEC1 cell line, read-out: pEC50 (converted)
[16] = Homo sapiens, MEC1, MEC1 cells, alamarBlue, direct comparison of 5f with PTL and DMAPT, n = 5, read-out: EC50

Sequence of hERG K+ channel (Q12809 whole entry): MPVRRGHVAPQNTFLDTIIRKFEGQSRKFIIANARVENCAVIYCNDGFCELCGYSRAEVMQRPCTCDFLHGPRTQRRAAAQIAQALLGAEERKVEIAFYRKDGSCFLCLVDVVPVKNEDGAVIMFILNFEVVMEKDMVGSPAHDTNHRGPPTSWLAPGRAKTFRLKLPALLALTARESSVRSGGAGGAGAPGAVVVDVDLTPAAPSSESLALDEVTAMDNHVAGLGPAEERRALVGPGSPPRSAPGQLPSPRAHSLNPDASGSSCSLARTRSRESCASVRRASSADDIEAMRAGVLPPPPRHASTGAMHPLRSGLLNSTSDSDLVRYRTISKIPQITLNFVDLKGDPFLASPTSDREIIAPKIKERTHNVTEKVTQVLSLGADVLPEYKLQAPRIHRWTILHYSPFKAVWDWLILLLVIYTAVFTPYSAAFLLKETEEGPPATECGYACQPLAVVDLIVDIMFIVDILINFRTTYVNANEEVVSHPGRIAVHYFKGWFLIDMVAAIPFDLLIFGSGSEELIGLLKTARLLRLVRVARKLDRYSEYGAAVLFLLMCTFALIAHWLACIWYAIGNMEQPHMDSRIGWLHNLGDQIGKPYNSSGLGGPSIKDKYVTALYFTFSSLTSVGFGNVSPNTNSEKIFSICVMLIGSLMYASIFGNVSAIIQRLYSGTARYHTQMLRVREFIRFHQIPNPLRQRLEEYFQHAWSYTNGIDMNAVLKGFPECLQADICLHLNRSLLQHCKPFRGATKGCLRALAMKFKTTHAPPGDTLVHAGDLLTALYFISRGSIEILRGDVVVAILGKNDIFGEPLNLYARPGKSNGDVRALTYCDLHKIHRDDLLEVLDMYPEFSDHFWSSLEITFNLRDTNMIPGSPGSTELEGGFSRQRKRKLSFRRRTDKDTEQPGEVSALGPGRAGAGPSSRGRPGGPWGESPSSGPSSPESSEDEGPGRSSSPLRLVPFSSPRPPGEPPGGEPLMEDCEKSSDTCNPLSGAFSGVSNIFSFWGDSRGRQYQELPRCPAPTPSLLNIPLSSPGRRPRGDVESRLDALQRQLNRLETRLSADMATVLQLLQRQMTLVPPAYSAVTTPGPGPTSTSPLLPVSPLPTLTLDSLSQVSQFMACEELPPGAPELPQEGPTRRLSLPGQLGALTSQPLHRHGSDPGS

Work on `C/C1=C\CC[C@@]2(C)O[C@@H]2[C@H]2OC(=O)[C@@H](CN3CCCC3)[C@@H]2CC1` [C00005] yielded a Mouse microsomal stability [1, 11] of 19, a Mouse microsomal stability [1, 12] of 75 and an EC50 [2, 13] of 7.7 µM. The “LipE pEC50–clog P” value [2] was 2.35, the “Hepatocyte stability (mouse) CLint” value [3] was 22.0 μL min^–1 per million cells and the half-life [3] was 1.08 h. For the same molecule, the efflux ratio [4] was 1, the Papp A→B [4] was 15.9 ×10⁻⁶ cm/s and the Papp B→A [4] was 16.2 ×10⁻⁶ cm/s. For the same molecule, the half-life [5] was over 2 h.
For `C/C1=C\CC[C@@]2(C)O[C@@H]2[C@H]2OC(=O)[C@@H](CN3CCC(c4cc(O)nc(C)n4)CC3)[C@@H]2CC1` [C00008], the Mouse microsomal stability [1, 11] was 18, the Mouse microsomal stability [1, 12] was 77 and the “LipE pEC50–clog P” value [2] was 3.69. The EC50 [2, 14] was 7.7 µM, the “Hepatocyte stability (mouse) CLint” value [3] was 22.0 μL min^–1 per million cells and the half-life [3] was 1.07 h. For the same molecule, the Papp A→B [4] was 2.7 ×10⁻⁶ cm/s, the Papp B→A [4] was 2.8 ×10⁻⁶ cm/s and the “Caco-2 pH 7.4 Efflux ratio” value [4] was 1.1. For the same molecule, the half-life [5] was over 2 h.
With `C/C1=C\CC[C@@]2(C)O[C@@H]2[C@H]2OC(=O)[C@@H](CN[C@@H](Cc3ccccc3)C(=O)O)[C@@H]2CC1` [C00010] the Mouse microsomal stability [1, 11] was 9, the Mouse microsomal stability [1, 12] was 160 and the “LipE pEC50–clog P” value [2] was 3.66. The EC50 [2, 14] was 13.5 µM, the “Hepatocyte stability (mouse) CLint” value [3] was 16.0 μL min^–1 per million cells and the half-life [3] was 1.47 h. The Papp A→B [4] was 1.5 ×10⁻⁶ cm/s, the Papp B→A [4] was 4.2 ×10⁻⁶ cm/s and the “Caco-2 pH 7.4 Efflux ratio” value [4] was 2.7. The half-life [5] was over 2 h.
Molecule `CC1=CCCC2(C)OC2C2OC(=O)C(CN3CCCC3)C2CC1` (centres unmarked) [Compound 5a] has a microsomal CLint [1] of 19 µL/min/mg, an EC50 [2, 13] of under 15 µM and an EC50 [2, 15] of 7.76 µM. For the same molecule, the “LipE pEC50–clog P” value [2] was 2.35, the EC50 [2, 14] was 7.7 µM and the IC50 [6] was over 100 µM. For the same molecule, the inhibition at 100 µM ([6]; human) was 45%, the “Mouse PK (PO) UC (0-inf)” value [7] was 711 ng h mL^–1 and the Cmax [7] was 283 ng/mL. For the same molecule, the half-life [7] was 0.5 h, the “Mouse PK (IV) UC (0-inf)” value [8] was 80.5 ng h mL^–1 and the clearance [8] was 207 mL/min/kg. For the same molecule, the half-life [8] was 0.66 h, the efflux ratio [4] was 1 and the “stability in aqueous solution” value [5] was “greater than two hours”.
Molecule `C/C1=C\CC[C@@]2(C)O[C@@H]2[C@H]2OC(=O)[C@@H](CN3CCC(O)(c4ccccc4)CC3)[C@@H]2CC1` [Compound 5e] has an EC50 [2, 14] of under 15 µM and a microsomal CLint [9] of over 100 µL/min/mg.
With `C/C1=C\CC[C@@]2(C)O[C@@H]2[C@H]2OC(=O)[C@@H](CN3CCC(c4cc(O)nc(C)n4)CC3)[C@@H]2CC1` [Compound 5f] the microsomal CLint [1] was 18 µL/min/mg, the EC50 [2, 13] was under 15 µM and the EC50 [2, 15] was 7.76 µM. The EC50 ([2]; Homo sapiens, MEC1, MEC1 cells, alamarBlue, 1, 5f and 7 compared in parallel, CalcuSyn, read-out: EC50) was 4.3 µM, the EC50 [2, 16] was 4.5 µM and the “LipE pEC50–clog P” value [2] was 3.69. For the same molecule, the EC50 [2, 14] was 7.7 µM, the “effect of NAC pre-treatment on activity” value ([2]; MEC1 cells, pre-treatment with N-acetylcysteine (NAC)) was “abrogated activity” and the hERG liability flag [6] was “inactive”. For the same molecule, the inhibition at 100 µM ([6]; human) was 24%, the IC50 ([6]; human) was over 100 µM and the “Mouse PK (PO) UC (0-inf)” value [7] was 1696 ng h mL^–1. For the same molecule, the Cmax [7] was 404 ng/mL, the half-life [7] was 1 h and the “Mouse PK (IV) UC (0-inf)” value [8] was 289 ng h mL^–1. For the same molecule, the clearance [8] was 58 mL/min/kg, the half-life [8] was 1.14 h and the efflux ratio [4] was 1.1. The “stability in aqueous solution” value [5] was “greater than two hours”.
In the case of `C/C1=C\CC[C@@]2(C)O[C@@H]2[C@H]2OC(=O)[C@@H](CN(C)C)[C@@H]2CC1` [DMAPT, dimethyl amino-PTL, reference compound], the EC50 [2, 16] is reported as 5.6 µM, the “LipE pEC50–clog P” value [2] is reported as 3.19 and the IC50 [6] is reported as over 100 µM. The inhibition at 100 µM ([6]; human) was 40%.
With `C/C1=C\CC[C@@]2(C)O[C@@H]2[C@H]2OC(=O)[C@@H](CN(C)C)[C@@H]2CC1` [DMAPT, dimethyl amino-PTL] the EC50 [10] was 5.3 µM.
